These results are taken from PubChem BioAssay (NCI).

Among the test systems are OVCAR-3 ovarian; SR leukemia; MCF7 breast; TK-10 renal; BT-549 breast; SW-620 colon; RXF 393 renal; SK-MEL-2 melanoma; U251 CNS; SN12C renal.
Holding throughout (test): DTP human tumour cell line panel, 48 h

Where “and” joins values, the source holds several entries; their conditions need not be identical. Equal values may be shown once.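 Cells were grown in 96-well plates and exposed to each compound for 48 hours at five concentrations; endpoints were interpolated linearly between bracketing concentrations, or set to the highest concentration if not reached. The concentration for 50% growth inhibition is given as GI50. At the TGI there is no net growth.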

As for `OC(c1cccc(-n2ccc(C(F)(F)F)n2)c1)c1cnccc1NC1CCCCCC1` (centres undefined), the GI50 (usually the concentration that inhibits growth by half) is 1760 nM in the experiment with OVCAR-3 ovarian; 1790 nM with SR leukemia; 1530 nM with MCF7 breast; 1770 nM with TK-10 renal; 1.63 µM with BT-549 breast; 1.67 µM in the experiment on SW-620 colon. Also, the GI50 with RXF 393 renal is 1360 nM; in the experiment on SK-MEL-2 melanoma, 2.01 µM; in the experiment on U251 CNS, 1660 nM; in the experiment with SN12C renal, 1690 nM. Also, the TGI (in general, the concentration giving total growth inhibition) in the experiment on OVCAR-3 ovarian was found to be 3.22 µM; in the experiment on SR leukemia, 6.49 µM; in the experiment on MCF7 breast it was 3.11 µM; with TK-10 renal, 3.49 µM; in the experiment on BT-549 breast, 3.06 µM; in the experiment on SW-620 colon it was 3.31 µM. The TGI was 2.74 µM with RXF 393 renal, 3.82 µM in the experiment on SK-MEL-2 melanoma, 3.24 µM with U251 CNS and 3.2 µM with SN12C renal.
Turning to `O=C(O)CCNc1ccccc1C(=O)O`, the TGI in the experiment with OVCAR-3 ovarian, in the experiment with SR leukemia, with MCF7 breast, with TK-10 renal, in the experiment on BT-549 breast and with SW-620 colon was greater than 100 µM throughout. Moreover, the TGI in the experiment on RXF 393 renal, in the experiment on SK-MEL-2 melanoma, in the experiment on U251 CNS and with SN12C renal was greater than 100 µM each time.
As for `COc1c(C=O)c2c(c(OC)c1OC)-c1ccc(OC)c(=O)cc1[C@@H](NC(C)=O)CC2`, the TGI in the experiment with OVCAR-3 ovarian is 1.09 µM; with SR leukemia, greater than 100 µM; in the experiment on MCF7 breast it was 28.4 µM; with TK-10 renal it was greater than 100 µM; in the experiment on BT-549 breast it was greater than 100 µM; in the experiment on SW-620 colon it was greater than 100 µM. Also, the TGI in the experiment with RXF 393 renal is greater than 56.3 µM; with SK-MEL-2 melanoma, 2.57 µM; in the experiment on U251 CNS, greater than 25.5 µM; in the experiment on SN12C renal, greater than 100 µM.
Consider `COc1ccc2oc(=O)cc(C(c3ccc[nH]3)c3ccc[nH]3)c2c1`, for which the GI50 with OVCAR-3 ovarian is 80.3 nM; in the experiment with MCF7 breast it was 108 nM; in the experiment with TK-10 renal it was 155 nM; in the experiment with BT-549 breast, less than 0.0505 µM; in the experiment on SW-620 colon it was 0.12 µM; with RXF 393 renal it was 90.2 nM. For the same compound, the GI50 was 0.616 µM with SK-MEL-2 melanoma, 110 nM in the experiment with U251 CNS and 148 nM with SN12C renal. Besides, the TGI in the experiment on OVCAR-3 ovarian came to 0.146 µM; in the experiment with SR leukemia, 3.79 µM; in the experiment with MCF7 breast it was 14.5 µM; with TK-10 renal it was 15.6 µM; with BT-549 breast, 0.389 µM; with SW-620 colon, 16.8 µM. Moreover, the TGI in the experiment with RXF 393 renal was determined as 0.44 µM; in the experiment with SK-MEL-2 melanoma it was 13.2 µM; with U251 CNS it was 12.9 µM; in the experiment on SN12C renal it was 15.8 µM.
Take `Cc1nc(-c2cccc(Nc3nc(-c4ccc(Cl)cc4)cs3)c2)cs1`: the GI50 in the experiment with OVCAR-3 ovarian was 10500 nM; with SR leukemia, 8310 nM; in the experiment on MCF7 breast it was 14700 nM; in the experiment on TK-10 renal, 8310 nM; in the experiment on BT-549 breast it was 10.7 µM; in the experiment with SW-620 colon, 11.9 µM. Besides, the GI50 with RXF 393 renal was 9630 nM; in the experiment with SK-MEL-2 melanoma, 8.82 µM; with U251 CNS, 8340 nM; with SN12C renal it was 9300 nM. For the same compound, the TGI amounted to 23.1 µM with OVCAR-3 ovarian; 27 µM in the experiment on SR leukemia; 43.7 µM in the experiment on MCF7 breast; 17.8 µM in the experiment on TK-10 renal; 21.6 µM in the experiment with BT-549 breast; 27 µM in the experiment with SW-620 colon. The TGI stood at 19 µM in the experiment on RXF 393 renal, 18.9 µM in the experiment with SK-MEL-2 melanoma, 16.4 µM in the experiment with U251 CNS and 17.1 µM in the experiment on SN12C renal.
In the case of `O=C(O)C/C(=C\c1ccco1)C(=O)O`, the TGI with OVCAR-3 ovarian, in the experiment on SR leukemia, in the experiment with MCF7 breast, in the experiment on TK-10 renal, with BT-549 breast and with SW-620 colon was greater than 100 µM in each case. Besides, the TGI with RXF 393 renal, with SK-MEL-2 melanoma, in the experiment with U251 CNS and with SN12C renal was greater than 100 µM throughout.
With `CCN1CCN(Cc2ccc(-c3cc4c(N[C@H](C)c5ccccc5)ncnc4[nH]3)cc2)CC1`, the GI50 in the experiment with OVCAR-3 ovarian is 3780 nM and 2050 nM; in the experiment with SR leukemia it was 2340 nM and 2050 nM; in the experiment with MCF7 breast, 2780 nM and 2680 nM; in the experiment on TK-10 renal, 111 nM and 183 nM; in the experiment on BT-549 breast, 6.3 µM and > 10 µM; in the experiment with SW-620 colon, 3.45 µM and 5.46 µM. Further, the GI50 was 1170 nM and 665 nM with RXF 393 renal; 4.86 µM and > 10 µM in the experiment on SK-MEL-2 melanoma; 1840 nM and 2850 nM in the experiment with U251 CNS; 278 nM and 2120 nM in the experiment with SN12C renal. In addition, the TGI was 20.9 µM and > 10 µM in the experiment on OVCAR-3 ovarian; 6.17 µM and 4.92 µM in the experiment on SR leukemia; 15.9 µM and > 10 µM in the experiment on MCF7 breast; 4.43 µM and > 10 µM in the experiment on TK-10 renal; 22.3 µM and > 10 µM in the experiment with BT-549 breast; 19.9 µM and > 10 µM with SW-620 colon. Moreover, the TGI was 4.27 µM and 3.82 µM in the experiment on RXF 393 renal; 17.4 µM and > 10 µM in the experiment with SK-MEL-2 melanoma; 5.06 µM and > 10 µM in the experiment with U251 CNS; 15.5 µM and > 10 µM in the experiment with SN12C renal.
Regarding `Cc1ccc(S(=O)(=O)OC2CCN(C)CC2)cc1`, the TGI in the experiment with OVCAR-3 ovarian is greater than 100 µM; in the experiment on SR leukemia, 49.9 µM; in the experiment with MCF7 breast, greater than 100 µM; in the experiment on TK-10 renal, greater than 100 µM; in the experiment with BT-549 breast, greater than 100 µM; with SW-620 colon, 42 µM. For the same compound, the TGI with RXF 393 renal, in the experiment on SK-MEL-2 melanoma, in the experiment on U251 CNS and with SN12C renal was greater than 100 µM each time.
Turning to `Nc1c(C(=O)c2cccc(CCCN3CCOCC3)c2)cnn1-c1ccc(F)cc1`, the GI50 in the experiment with OVCAR-3 ovarian was greater than 25000 nM; in the experiment on SR leukemia, greater than 25000 nM; with MCF7 breast, greater than 25000 nM; with TK-10 renal, greater than 25000 nM; with BT-549 breast, greater than 25 µM; in the experiment on SW-620 colon, greater than 25 µM. Besides, the GI50 in the experiment with RXF 393 renal was greater than 25000 nM; in the experiment with SK-MEL-2 melanoma it was greater than 25 µM; in the experiment on U251 CNS it was greater than 25000 nM; in the experiment with SN12C renal, greater than 25000 nM. Moreover, the TGI in the experiment with OVCAR-3 ovarian, in the experiment with SR leukemia, in the experiment with MCF7 breast, in the experiment on TK-10 renal, in the experiment with BT-549 breast and in the experiment with SW-620 colon was greater than 25 µM each time. Moreover, the TGI with RXF 393 renal, with SK-MEL-2 melanoma, in the experiment on U251 CNS and in the experiment with SN12C renal was greater than 25 µM in each case.
Take `CCOC(=O)c1ccc2[nH]c(-c3ccc(S(=O)(=O)F)cc3)cc(=O)c2c1`: the TGI in the experiment on OVCAR-3 ovarian is 50.3 µM; in the experiment with SR leukemia it was greater than 100 µM; in the experiment with MCF7 breast, greater than 100 µM; in the experiment on TK-10 renal it was greater than 100 µM; in the experiment with BT-549 breast, greater than 100 µM; with SW-620 colon, greater than 100 µM. Further, the TGI in the experiment on RXF 393 renal, in the experiment on SK-MEL-2 melanoma, in the experiment with U251 CNS and in the experiment with SN12C renal was greater than 100 µM each time.
